Measurements: US12466784B2, “Analogs of pterostilbene amino acid bearing carbonates for treating a non-alcoholic fatty liver disease and nonalcoholic steatohepatitis” (APICAL MOLECULAR BIOTECH CO., LTD., priority 2020, dated 2025)
Several values for one entry are separate records, joined by “and”; a condition that tells them apart may be missing. Identical values can stand only once.

Columns and labels:
[1] = test system: hepatic steatosis induced by MCD diet; assay: Histological examination (H&E stain) of liver of MCD diet mice; type: in vivo, Male C57BL/6 mice; conditions: for effect on MCD diet-induced steatohepatitis (H&E staining), in words / Steatosis / Fibrosis / Ballooning / Inflammation / Scores: MCD diet mice; for effect on MCD diet-induced steatohepatitis (H&E staining), in words / Avg / Fibrosis / Ballooning / Inflammation / Sum / Scores: 100 mg/kg oral; for Avg: average of Scores of the group; for Avg / Fibrosis / Ballooning / Inflammation / Sum / Scores: PG/TPSG (1:1); for Steatosis / Fibrosis / Ballooning / Inflammation: score per animal; for Steatosis: 100 mg/kg oral once daily, 5 times a week, in PG/TPSG (1:1); for Sum: sum of Scores of the 4 animals of the group; for Scores: total score per animal
Protocol: (§1) Animals and experimental protocol: Male C57BL/6 mice, 4 weeks of age, were purchased from Laboratory Animal Center (Taiwan, China) were maintained under the procedures and guidelines provided by the Institutional Animal Care and Use Committee of the Health Research Institutes (Taiwan, China). They were maintained with free access to pellet food and water in stainless-steel cages at a temperature of 21±2° C. with a 12 h light/dark cycle.
(§2) Mice were randomly divided into five groups and treated as follows: (1) MCD diet+PG/TPSG (2) MCD diet+100 mg/kg all compounds. After 28 days, animals were sacrificed for the collection of blood for determination of plasma ALT and AST concentrations, and liver samples for H&E stain.
(§3) After 28 days, animals were sacrificed for the collection of blood for determination of plasma ALT and AST concentrations, and liver samples for H&E stain.

MCD diet NASH mice = assay: Serum AST and ALT of compounds treated-NASH mice (MCD diet); type: in vivo, Male C57BL/6 mice; conditions: MCD diet mice; for effect on serum concentrations of AST and ALT, in words: 100 mg/kg oral (Table 2); for Serum ALT (U/L) / Serum AST (U/L): 100 mg/kg oral, PG/TPSG (1:1)
Protocol: as §1, §2, §3

SMILES	effect on MCD diet-induced steatohepatitis (H&E staining), in words [1]	Avg [1]	Steatosis ([1]; hydrochloride, 100 mg/kg)	Fibrosis [1]	Ballooning ([1]; hydrochloride, 100 mg/kg)	Inflammation ([1]; hydrochloride, 100 mg/kg)	Sum [1]	Scores ([1]; hydrochloride, 100 mg/kg)	effect on serum concentrations of AST and ALT, in words (MCD diet NASH mice)	Serum ALT (U/L) (MCD diet NASH mice)	Serum AST (U/L) (MCD diet NASH mice)	Ballooning [1]	Inflammation [1]	Steatosis [1]	Scores [1]
COc1cc(/C=C/c2ccc(OC(=O)OCCNC(=O)C(C)N)cc2)cc(OC)c1.Cl (stereo not shown) [Compound 5b, (E)-2-(2-aminopropanamido)ethyl (4-(3,5-dimethoxystyryl)phenyl) carbonate hydrochloride]	prevented MCD diet-induced steatohepatitis	4.5	2 (3×) and 3	0	1 (3×) and 2	2 and 1 (3×)	19	5 and 4 (2×) and 6	significantly inhibited the serum concentrations of AST and ALT	180.88	235.25	–	–	–	–
COc1cc(/C=C/c2ccc(OC(=O)OCCNC(=O)C(N)CC(C)C)cc2)cc(OC)c1.Cl (stereo not shown) [Compound 5d, (E)-2-(2-amino-4-methylpentanamido)ethyl (4-(3,5-dimethoxystyryl)phenyl) carbonate hydrochloride]	prevented MCD diet-induced steatohepatitis	7.75	3 (3×) and 2	0	–	–	31	8 (3×) and 7	significantly inhibited the serum concentrations of AST and ALT	196.13	392.25	2	3	–	–
CCC(C)C(N)C(=O)NCCOC(=O)Oc1ccc(/C=C/c2cc(OC)cc(OC)c2)cc1.Cl (stereo not shown) [Compound 5e, (E)-2-(2-amino-3-methylpentanamido)ethyl (4-(3,5-dimethoxystyryl)phenyl) carbonate hydrochloride]	prevented MCD diet-induced steatohepatitis	7.75	–	0	–	3 (3×) and 2	31	8 (3×) and 7	–	209.62	419.25	2	–	3	–
COc1cc(/C=C/c2ccc(OC(=O)OCCNC(=O)C(N)CCSC)cc2)cc(OC)c1.Cl (stereo not shown) [Compound 5f, (E)-2-(2-amino-4-(methylthio)butanamido)ethyl (4-(3,5-dimethoxystyryl)phenyl) carbonate hydrochloride]	prevented MCD diet-induced steatohepatitis	6.25	–	0	1 (3×) and 2	2 (3×) and 1	25	–	significantly inhibited the serum concentrations of AST and ALT	153.00	241.75	–	–	2	5
COc1cc(/C=C/c2ccc(OC(=O)OCCNC(=O)C(N)CO)cc2)cc(OC)c1.Cl (stereo not shown) [Compound 5g, (E)-2-(2-amino-3-hydroxypropanamido)ethyl (4-(3,5-dimethoxystyryl)phenyl) carbonate hydrochloride]	prevented MCD diet-induced steatohepatitis	6.5	3 (2×) and 2 (2×)	0	2 (2×) and 1 (2×)	3 (2×) and 2 (2×)	26	8 (2×) and 5 (2×)	–	222.13	444.25	–	–	–	–
COc1cc(/C=C/c2ccc(OC(=O)OCCNC(=O)C(N)C(C)O)cc2)cc(OC)c1.Cl (stereo not shown) [Compound 5h, (E)-2-(2-amino-3-hydroxybutanamido)ethyl (4-(3,5-dimethoxystyryl)phenyl) carbonate hydrochloride]	–	8	–	0	–	–	32	–	significantly inhibited the serum concentrations of AST and ALT	150.75	301.50	2	3	3	8
COc1cc(/C=C/c2ccc(OC(=O)OCCNC(=O)C(N)Cc3ccccc3)cc2)cc(OC)c1.Cl (stereo not shown) [Compound 5j, (E)-2-(2-amino-3-phenylpropanamido)ethyl (4-(3,5-dimethoxystyryl)phenyl) carbonate hydrochloride]	prevented MCD diet-induced steatohepatitis	7.75	3 (3×) and 2	0	–	–	31	8 (3×) and 7	–	299.00	598.00	2	3	–	–
COc1cc(/C=C/c2ccc(OC(=O)OCCNC(=O)C(N)CC(N)=O)cc2)cc(OC)c1.Cl (stereo not shown) [Compound 5p, (E)-2-(2,4-diamino-4-oxobutanamido)ethyl (4-(3,5-dimethoxystyryl)phenyl) carbonate hydrochloride]	prevented MCD diet-induced steatohepatitis	7.75	3 (3×) and 2	0	–	–	31	8 (3×) and 7	significantly inhibited the serum concentrations of AST and ALT	288.50	327.00	2	3	–	–
COc1cc(/C=C/c2ccc(OC(=O)OCCNC(=O)C3CCCN3)cc2)cc(OC)c1.Cl (stereo not shown) [Compound 5t, (E)-4-(3,5-dimethoxystyryl)phenyl (2-(pyrrolidine-2-carboxamido)ethyl) carbonate hydrochloride]	prevented MCD diet-induced steatohepatitis	7.75	3 (3×) and 2	0	–	–	31	8 (3×) and 7	–	263.00	370.25	2	3	–	–
COc1cc(/C=C/c2ccc(OC(=O)OCCNC(=O)C(N)C(C)C)c(OC)c2)cc(OC)c1.Cl (stereo not shown) [Compound 6g, (E)-2-(2-amino-3-methylbutanamido)ethyl (4-(3,5-dimethoxystyryl)-2-methoxyphenyl) carbonate hydrochloride]	prevented MCD diet-induced steatohepatitis	7.75	3 (3×) and 2	0	–	–	31	8 (3×) and 7	–	260.75	455.25	2	3	–	–
COc1cc(/C=C/c2ccc(OC(=O)NCCNC(=O)C(N)C(C)C)cc2)cc(OC)c1.Cl (stereo not shown) [Compound 7c, (E)-4-(3,5-dimethoxystyryl)phenyl (2-(2-amino-3-methylbutanamido)ethyl) carbamate hydrochloride]	prevented MCD diet-induced steatohepatitis	7.75	3 (3×) and 2	0	–	–	31	8 (3×) and 7	–	252.13	435.25	2	3	–	–
COc1cc(/C=C/c2ccc(OC(=O)NCCNC(=O)C(N)Cc3ccccc3)cc2)cc(OC)c1.Cl (stereo not shown) [Compound 7e, (E)-4-(3,5-dimethoxystyryl)phenyl (2-(2-amino-3-phenylpropanamido)ethyl) carbamate hydrochloride]	prevented MCD diet-induced steatohepatitis	7.75	–	0	–	3 (3×) and 2	31	8 (3×) and 7	–	286.75	477.00	2	–	3	–
